This note sets out measurements from patent publication US9896441B2 (Lycera Corporation, priority 2014, dated 2018).

The structures appear in SMILES notation.

One assay deals with T1, RORγ-LBD (Homo sapiens, UniProt P51449).
T1 construct: made in house; host or cells: SF9 cells (baculovirus); used as diluted lysate
T1 sequence (P51449 269-508 limits assumed): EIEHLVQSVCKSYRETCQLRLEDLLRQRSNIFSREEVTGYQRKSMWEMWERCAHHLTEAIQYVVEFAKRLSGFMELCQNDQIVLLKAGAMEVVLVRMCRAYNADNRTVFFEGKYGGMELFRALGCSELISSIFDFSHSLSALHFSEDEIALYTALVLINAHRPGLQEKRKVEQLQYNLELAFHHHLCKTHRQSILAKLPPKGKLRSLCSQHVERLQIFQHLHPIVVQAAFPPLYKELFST
The assay can be described thus: RORγ-Ligand Binding Domain (LBD) TR-FRET Assay.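 For TR-FRET Assay Max Response: 665/615 nm signal ratio set to 100 without ursolic acid or test compound.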 The class given is biochemical. Conditions: RORγ-LBD TR-FRET assay; for TR-FRET Assay Max Response: maximum response. The method, boiled down: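 This TR-FRET coactivator assay pairs baculovirus-expressed His-RORγ-LBD (~3 nM final) with biotin-SRC1 LXXLL peptide at 200 nM final in pH 7.0 Tris/KCl/EDTA/DTT/BSA buffer.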

For another assay, the target named is T2, Gal4-RORγ-LBD (Homo sapiens, UniProt P51449).
T2 construct: expressed in transfected cells
T2 sequence (P51449 269-508 limits assumed): T1 sequence (P51449 269-508 limits assumed)
The assay can be described thus: Gal4-RORγ Luciferase Reporter Assay in HEK-293T Cells. It is filed as cell-based. The conditions noted are these: HEK-293 cells, luciferase reporter, in presence of ursolic acid; for Gal4-RORγ Assay Max Response: maximum response. The method, boiled down: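 HEK-293 cells were co-transfected with Gal4-RORγ-LBD and a Gal4-luciferase reporter, then exposed overnight at 37 °C to compounds with […] ursolic acid present (0.2% DMSO). Luminescence was read with One-Glo after 10 min at RT, untreated signal was set as 100, and Max Response was taken as the upper plateau of a 4-parameter logistic fit.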
For orientation: Reporter assays use an easily measured gene product as a stand-in for the process of interest.

As a reminder, the EC50 is the concentration giving half of the maximal effect. As for `C/C(=C\c1ccc2c(c1)N(S(=O)(=O)c1cccc(C(F)(F)F)c1)C[C@H](CCCN1CCS(=O)(=O)CC1)O2)c1c(F)cccc1Cl` [Example 119H, (S,E)-4-(3-(6-(2-(2-chloro-6-fluorophenyl)prop-1-en-1-yl)-4-((3-(trifluoromethyl)-phenyl)sulfonyl)-3,4-dihydro-2H-benzo[b][1,4]oxazin-2-yl)propyl)thiomorpholine 1,1-dioxide], on RORγ-LBD, the EC50 is below 0.5 µM and the “TR-FRET Assay Max Response” value was “*** (a value in the range of greater than 150 to 200)”. Further, on Gal4-RORγ-LBD, the EC50 was below 0.5 µM and the “Gal4-RORγ Assay Max Response” value is “** (a value in the range of greater than 90 to 150)”.

For `COc1cc(S(=O)(=O)N2C[C@H](CCC(C)(C)O)Oc3ccc(/C=C(\C)c4c(F)cccc4Cl)cc32)ccc1F` [Example 120, (S,E)-4-(6-(2-(2-Chloro-6-fluorophenyl)prop-1-en-1-yl)-4-((4-fluoro-3-methoxyphenyl)sulfonyl)-3,4-dihydro-2H-benzo[b][1,4]oxazin-2-yl)-2-methylbutan-2-ol], at RORγ-LBD, the EC50 is below 0.5 µM and the “TR-FRET Assay Max Response” value is “*** (a value in the range of greater than 150 to 200)”. Moreover, at Gal4-RORγ-LBD, the EC50 is below 0.5 µM and the “Gal4-RORγ Assay Max Response” value is given as “** (a value in the range of greater than 90 to 150)”.

For the compound `C/C(=C\c1ccc2c(c1)N(S(=O)(=O)c1cccc(C(F)(F)F)c1)C[C@H](CC(C)(C)O)O2)c1c(F)cccc1Cl` [Example 121A, (S,E)-1-(6-(2-(2-chloro-6-fluorophenyl)prop-1-en-1-yl)-4-((3-(trifluoromethyl)-phenyl)sulfonyl)-3,4-dihydro-2H-benzo[b][1,4]oxazin-2-yl)-2-methylpropan-2-ol], at RORγ-LBD, the 50% effective concentration (EC50) was below 0.5 µM and the “TR-FRET Assay Max Response” value is “*** (a value in the range of greater than 150 to 200)”. In addition, on Gal4-RORγ-LBD, the EC50 is below 0.5 µM and the “Gal4-RORγ Assay Max Response” value is listed as “** (a value in the range of greater than 90 to 150)”.

`C/C(=C\c1ccc2c(c1)N(S(=O)(=O)c1cccc(C(F)(F)F)c1)C[C@H](CCC(C)(C)O)O2)c1c(F)cccc1Cl` [Example 121B, (S,E)-4-(6-(2-(2-chloro-6-fluorophenyl)prop-1-en-1-yl)-4-((3-(trifluoromethyl)-phenyl)sulfonyl)-3,4-dihydro-2H-benzo[b][1,4]oxazin-2-yl)-2-methylbutan-2-ol]: on RORγ-LBD, the EC50 was below 0.5 µM and the “TR-FRET Assay Max Response” value is “** (a value in the range of greater than 90 to 150)”. At Gal4-RORγ-LBD, the EC50 was below 0.5 µM and the “Gal4-RORγ Assay Max Response” value was “** (a value in the range of greater than 90 to 150)”.

Regarding `CCn1cc(S(=O)(=O)N2C[C@H](CCC(C)(C)O)Oc3ccc(/C=C(\C)c4c(F)cccc4Cl)cc32)c(OCCO)n1` [Example 121C, (S,E)-4-(6-(2-(2-chloro-6-fluorophenyl)prop-1-en-1-yl)-4-((1-ethyl-3-(2-hydroxyethoxy)-1H-pyrazol-4-yl)sulfonyl)-3,4-dihydro-2H-benzo[b][1,4]oxazin-2-yl)-2-methylbutan-2-ol], on RORγ-LBD, the concentration for a half-maximal effect (EC50) was below 0.5 µM and the “TR-FRET Assay Max Response” value is recorded as “**** (a value greater than 200)”. On Gal4-RORγ-LBD, the EC50 was below 0.5 µM and the “Gal4-RORγ Assay Max Response” value is recorded as “** (a value in the range of greater than 90 to 150)”.

In the case of `C/C(=C\c1ccc2c(c1)N(S(=O)(=O)c1cccc(C(F)(F)F)c1)C[C@H](CCN1CCC(C(=O)O)CC1)O2)c1c(F)cccc1Cl` [Example 122, (S,E)-1-(2-(6-(2-(2-Chloro-6-fluorophenyl)prop-1-en-1-yl)-4-((3-(trifluoromethyl)phenyl)sulfonyl)-3,4-dihydro-2H-benzo[b][1,4]oxazin-2-yl)ethyl)piperidine-4-carboxylic acid], on RORγ-LBD, the EC50 was below 0.5 µM and the “TR-FRET Assay Max Response” value was “*** (a value in the range of greater than 150 to 200)”. At Gal4-RORγ-LBD, the EC50 is below 0.5 µM and the “Gal4-RORγ Assay Max Response” value is “** (a value in the range of greater than 90 to 150)”.

On to `C/C(=C\c1ccc2c(c1)N(S(=O)(=O)c1cccc(C(F)(F)F)c1)C[C@H](CCCN1CCC(C(=O)O)CC1)O2)c1c(F)cccc1Cl` [Example 123, (S,E)-1-(3-(6-(2-(2-Chloro-6-fluorophenyl)prop-1-en-1-yl)-4-((3-(trifluoromethyl)phenyl)sulfonyl)-3,4-dihydro-2H-benzo[b][1,4]oxazin-2-yl)propyl)piperidine-4-carboxylic acid], for which, at RORγ-LBD, the EC50 was below 0.5 µM and the “TR-FRET Assay Max Response” value is given as “** (a value in the range of greater than 90 to 150)”. At Gal4-RORγ-LBD, the EC50 was in the range of 0.5 to 5 µM and the “Gal4-RORγ Assay Max Response” value is given as “** (a value in the range of greater than 90 to 150)”.

Take `C/C(=C\c1ccc2c(c1)N(S(=O)(=O)c1cccc(C(F)(F)F)c1)C[C@H](CCN1CCC[C@H]1C(=O)O)O2)c1c(F)cccc1Cl` [Example 124, (2-((S)-6-((E)-2-(2-Chloro-6-fluorophenyl)prop-1-en-1-yl)-4-((3-(trifluoromethyl)phenyl)sulfonyl)-3,4-dihydro-2H-benzo[b][1,4]oxazin-2-yl)ethyl)-L-proline]: on RORγ-LBD, the EC50 is below 0.5 µM and the “TR-FRET Assay Max Response” value was “*** (a value in the range of greater than 150 to 200)”. Also, at Gal4-RORγ-LBD, the EC50 lay within 0.5 to 5 µM and the “Gal4-RORγ Assay Max Response” value was “** (a value in the range of greater than 90 to 150)”.

In the case of `C/C(=C\c1ccc2c(c1)N(S(=O)(=O)c1cccc(C(F)(F)F)c1)C[C@H](CO)O2)c1c(F)cccc1Cl` [Example 125, (R,E)-(6-(2-(2-Chloro-6-fluorophenyl)prop-1-en-1-yl)-4-((3-(trifluoromethyl)phenyl)sulfonyl)-3,4-dihydro-2-h-benzo[b][1,4]oxazin-2-yl)methanol], at RORγ-LBD, the EC50 is below 0.5 µM and the “TR-FRET Assay Max Response” value was “*** (a value in the range of greater than 150 to 200)”. In addition, at Gal4-RORγ-LBD, the EC50 is below 0.5 µM and the “Gal4-RORγ Assay Max Response” value is reported as “** (a value in the range of greater than 90 to 150)”.

On to `C/C(=C\c1ccc2c(c1)N(S(=O)(=O)c1cccc(C(F)(F)F)c1)C[C@H](CCC(=O)N1CCCC1)O2)c1c(F)cccc1Cl` [Example 126, (S,E)-3-(6-(2-(2-Chloro-6-fluorophenyl)prop-1-en-1-yl)-4-((3-(trifluoromethyl)phenyl)sulfonyl)-3,4-dihydro-2H-benzo[b][1,4]oxazin-2-yl)-1-(pyrrolidin-1-yl)propan-1-one], for which, on RORγ-LBD, the EC50 was below 0.5 µM and the “TR-FRET Assay Max Response” value is listed as “** (a value in the range of greater than 90 to 150)”. Further, at Gal4-RORγ-LBD, the EC50 is below 0.5 µM and the “Gal4-RORγ Assay Max Response” value is on record as “** (a value in the range of greater than 90 to 150)”.

As for `C/C(=C\c1ccc2c(c1)N(S(=O)(=O)c1cccc(C(F)(F)F)c1)C[C@H](CCC(=O)N1CCC(C(N)=O)CC1)O2)c1c(F)cccc1Cl` [Example 127A, (S,E)-1-(3-(6-(2-(2-chloro-6-fluoro-phenyl)-prop-1-en-1-yl)-4-((3-(trifuoromethyl)phenyl)sulfonyl)-3,4-dihydro-2H-benzo[b][1,4]oxazin-2-yl)propanoyl)piperidine-4-carboxamide], on RORγ-LBD, the EC50 is below 0.5 µM and the “TR-FRET Assay Max Response” value was “**** (a value greater than 200)”. In addition, at Gal4-RORγ-LBD, the EC50 was below 0.5 µM and the “Gal4-RORγ Assay Max Response” value was “** (a value in the range of greater than 90 to 150)”.

For `C/C(=C\c1ccc2c(c1)N(S(=O)(=O)c1cccc(C(F)(F)F)c1)C[C@H](CCC(=O)N1CCOCC1)O2)c1c(F)cccc1Cl` [Example 127B, (S,E)-3-(6-(2-(2-chloro-6-fluorophenyl)prop-1-en-1-yl)-4-((3-(trifluoromethyl)phenyl)sulfonyl)-3,4-dihydro-2H-benzo[b][1,4]oxazin-2-yl)-1-morpholino-propan-1-one], on RORγ-LBD, the concentration for a half-maximal effect (EC50) was below 0.5 µM and the “TR-FRET Assay Max Response” value is listed as “**** (a value greater than 200)”. Further, at Gal4-RORγ-LBD, the EC50 was below 0.5 µM and the “Gal4-RORγ Assay Max Response” value is reported as “** (a value in the range of greater than 90 to 150)”.

On to `C/C(=C\c1ccc2c(c1)N(S(=O)(=O)c1cccc(C(F)(F)F)c1)C[C@H](CCC(=O)N1CCS(=O)(=O)CC1)O2)c1c(F)cccc1Cl` [Example 127C, (S,E)-3-(6-(2-(2-chloro-6-fluorophenyl)prop-1-en-1-yl)-4-((3-(trifluoro-methyl)phenyl)sulfonyl)-3,4-dihydro-2H-benzo[b][1,4]oxazin-2-yl)-1-(1,1-dioxidothio-morpholino)propan-1-one], for which, at RORγ-LBD, the concentration for a half-maximal effect (EC50) is below 0.5 µM and the “TR-FRET Assay Max Response” value is reported as “**** (a value greater than 200)”. At Gal4-RORγ-LBD, the concentration giving a half-maximal response (EC50) is below 0.5 µM and the “Gal4-RORγ Assay Max Response” value is “** (a value in the range of greater than 90 to 150)”.
